Test system: hepatic cholesterogenesis
Test: In vivo cholesterogenesis in the liver ([14C]acetate incorporation into digitonin-precipitable hepatic sterols)
Conditions: male Sprague-Dawley rats on 5%-cholestylamine diet for 4 days; dose of 30 mg/kg as suspension in 0.5%-methylcellulose; [14C]acetate i.v. 1 hour after administration, livers removed one hour later; compared to the control group
Description: Six-week-old, male Sprague-Dawley rats were given 5%-cholestylamine as a dietary admixture for 4 days. They were administered compound at a dose of 30 mg/kg as a suspension of 0.5%-methylcellulose solution and were intravenously given 2 uCi of [^14C]acetate 1 hour after the administration. One hour later, rats were sacrificed and livers were removed. Hepatic sterols were extracted with petroleum ether after saponification, and the radioactivity of digitonin-precipitable fraction was measured. Example 1-(4) inhibited the hepatic cholesterogenesis by 38% compared to the control group given only […] solution.

Question: How did the “inhibited the hepatic cholesterogenesis” value turn out when CCOC(=O)CC1OC(c2ccccc2Cl)c2cc(Cl)ccc2N(CC(C)(C)C)C1=O (stereo not shown) [Example 1-(4)] was run?
Answer: 38%
